# Data from patent US20140127231A1, “p38 MAPK Pathway Inhibitors as Female-Specific Therapeutics” (UNIVERSITY OF VERMONT, priority 2012, published 2014).
# Entries after “also recorded” stand apart in the source; their conditions may differ.
# Experiments:
# [1] = system: TH1-mediated passive EAE; assay: Passive EAE induced by TH1 cells; type: in vivo, mice; details: polarized DLN cells transferred into naïve recipients, listed as SB
# From the text: FIG. 5A is a schematic that illustrates that protocol of inducing passive EAE.
# Based on this and the observation that IL-17 is not absolutely required for EAE progression (Haak, S et al., 2009, J Clin Invest 119:61-69), it is possible that SB prevents EAE by inhibiting production of additional key pathogenic factors. Further, it is shown that TH1-mediated passive EAE is prevented by inhibition of p38 MAPK (FIG. 5). In these experiments, donor animals were immunized with MOG35-55, DLN cells were isolated at D10 and cultured under polarizing conditions, and cells were transferred into naïve recipients. […] As such, complementary genomic and proteomic approaches were used to identify these factors, which in the future may provide novel druggable targets for treatment of autoimmune disease. Because such approaches typically yield a large number of potential candidates, a prioritizing/“funneling” scheme was constructed to rule out irrelevant hits in screens. In particular, the sexual dimorphism in response to SB serves as a useful discriminatory tool in this regard.
# [2] = system: TH17 and TH1 cells in CNS-infiltrating cells; assay: CNS-infiltrating cells of treated EAE mice, intracellular cytokine staining and flow cytometry; type: in vivo, C57BL/6J (B6) mice; details: female B6 mice treated daily, D30 post-immunization
# From the text: Female B6 mice were immunized for EAE as described for FIG. 1 and treated daily with carrier or SB. On D30 post-immunization, CNS (brain and spinal cord) cells were harvested and analyzed by intracellular staining and flow cytometry. Relative percentages (out of CD4+TCRβ+ population) of IL-17+, IFN-γ+, or IL-17+ IFN-γ+ cells (FIG. 2A), and percentages of CD4+TCRβ+ cells (out of CD45+ cells) (FIG. 2B). DLN cells were collected on D20 and restimulated with MOG35-55 for 3 days. Production of IFN-γ+(FIG. 2C) or IL-17 (FIG. 2D) was assessed by ELISA.
# EAE was induced in female C57BL/6J mice as described previously (Noubade et al., 2007, J Clin Invest., 117(11):3507-3518). Mice were injected subcutaneously with an emulsion containing 200 μg of MOG35-55 peptide ([…] (SEQ ID NO: 1) and complete Freund adjuvant (CFA; Sigma-Aldrich) supplemented with 200 μg of Mycobacterium tuberculosis H37RA (Difco Laboratories) in the posterior right and left flank; 1 week later, all mice were similarly injected at 2 sites on the right and left flank anterior of the initial injection sites (2×MOG35-55+CFA). Mice received 5 mg/kg/d SB203580 dihydrochloride (Tocris) by IP injection in a total volume of 200 μL or an equal volume of carrier every day from the day of immunization.
# Animals were perfused with saline and brains and spinal cords removed. A single-cell suspension was obtained and passed through a 70-μm strainer. Mononuclear cells were obtained by Percoll gradient (37%/70%) centrifugation and collected from the interphase. Cells were washed and stimulated for 4 hours with PMA/ionomycin in the presence of brefeldin A (Golgi Plug; BD Biosciences). […]
# To examine the mechanism of EAE prevention by SB, the TH1 and TH17 effector subsets were analyzed in treated female mice. […] On D30 post-immunization, CNS (brain and spinal cord) cells were harvested and analyzed by intracellular staining and flow cytometry. […] Draining lymph node (DLN) cells were collected on D20 and restimulated with MOG35-55 for 3 days, and production of IFN-γ and IL-17 was assessed by ELISA.
structure (smiles),measurement,setting,value
C[S+]([O-])c1ccc(-c2nc(-c3ccncc3)c(-c3ccc(F)cc3)[nH]2)cc1 (centres unmarked) [SB203580],Cytokine production / inflammatory response,[1],decreased cytokine production; also recorded: reduces the inflammatory response
same,EAE severity,[1],reduces EAE severity; also recorded: prevents passive EAE induced by TH1 cells
same,IFN-γ production by TH1 cells,[2]; CNS cells,did not suppress IFN-γ production
same,IL-17 production by TH17 cells,"[2]; CNS cells, listed as SB",inhibits IL-17 production by TH17 cells; also recorded: specifically inhibited IL-17 production; also recorded: only partially inhibits IL-17 production
same,Percentage or number of infiltrating CD4+ T cells in the CNS,[2],did not decrease the percentage or number of infiltrating CD4+ T cells
